{"source": "patent US7138361B2", "about": "“Herbicidal heterocycles” (E. I. du Pont de Nemours and Company, priority 2000, dated 2006)", "type_in_all_cases": "in vivo", "key": {"[1]": {"system": "Surinam grass (Brachiaria decumbens)", "experiment": "Test B preemergence", "conditions": "scale 0 to 100, 0 no effect, 100 complete control", "how_it_was_run": "(§1)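 Ratings on a 0 to 100 visual scale (100 complete control) compare treated plants with controls 13 to 15 days after application. Treatments were pre- or postemergence sprays of compound in non-phytotoxic solvent with surfactant.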"}, "[2]": {"system": "barnyardgrass (Echinochloa crus-galli)", "experiment": "Test B preemergence", "conditions": "scale 0 to 100, 0 no effect, 100 complete control", "how_it_was_run": "as §1"}, "[3]": {"system": "cocklebur (Xanthium strumarium)", "experiment": "Test B preemergence", "conditions": "scale 0 to 100, 0 no effect, 100 complete control", "how_it_was_run": "as §1"}, "corn (Zea mays)": {"system": "corn (Zea mays)", "experiment": "Test B preemergence", "conditions": "scale 0 to 100, 0 no effect, 100 complete control", "how_it_was_run": "as §1"}, "[4]": {"system": "crabgrass (Digitaria sanguinalis)", "experiment": "Test B preemergence", "conditions": "scale 0 to 100, 0 no effect, 100 complete control", "how_it_was_run": "as §1"}, "[5]": {"system": "giant foxtail (Setaria faberii)", "experiment": "Test B preemergence", "conditions": "scale 0 to 100, 0 no effect, 100 complete control", "how_it_was_run": "as §1"}, "[6]": {"system": "lambsquarters (Chenopodium album)", "experiment": "Test B preemergence", "conditions": "scale 0 to 100, 0 no effect, 100 complete control", "how_it_was_run": "as §1"}, "[7]": {"system": "morning glory (Ipomoea hederacea)", "experiment": "Test B preemergence", "conditions": "scale 0 to 100, 0 no effect, 100 complete control", "how_it_was_run": "as §1"}, "[8]": {"system": "pigweed (Amaranthus retroflexus)", "experiment": "Test B preemergence", "conditions": "scale 0 to 100, 0 no effect, 100 complete control", "how_it_was_run": "as §1"}, "rice (Oryza saliva)": {"system": "rice (Oryza saliva)", "experiment": "Test B preemergence", "conditions": "scale 0 to 100, 0 no effect, 100 complete control", "how_it_was_run": "as §1"}, "[9]": {"system": "velvetleaf (Abutilon theophrasti)", "experiment": "Test B preemergence", "conditions": "scale 0 to 100, 0 no effect, 100 complete control", "how_it_was_run": "as §1"}, "Sunflower [10]": {"system": "Sunflower", "experiment": "Test C preemergence"}, "[11]": {"system": "Surinam grass (Brachiaria decumbens)", "experiment": "Test C preemergence", "how_it_was_run": "(§2)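 Herbicidal effect is a visual 0–100 score (100 = complete control) assigned versus untreated plants, 12 to 14 days after spraying in the greenhouse. Test compounds were applied in a non-phytotoxic, surfactant-containing solvent.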"}, "[12]": {"system": "bermudagrass (Cynodon dactylon)", "experiment": "Test C preemergence", "how_it_was_run": "as §2"}, "[13]": {"system": "cocklebur (Xanthium strumarium)", "experiment": "Test C preemergence", "how_it_was_run": "as §2"}, "[14]": {"system": "common ragweed (Ambrosia elatior)", "experiment": "Test C preemergence", "how_it_was_run": "as §2"}, "[15]": {"system": "crabgrass (Digitaria sanguinalis)", "experiment": "Test C preemergence", "how_it_was_run": "as §2"}, "[16]": {"system": "giant foxtail (Setaria faberii)", "experiment": "Test C preemergence", "how_it_was_run": "as §2"}, "[17]": {"system": "goosegrass (Eleusine indica)", "experiment": "Test C preemergence", "how_it_was_run": "as §2"}, "[18]": {"system": "morningglory (Ipomoea hederacea)", "experiment": "Test C preemergence", "how_it_was_run": "as §2"}, "[19]": {"system": "velvetleaf (Abutilon theophrasti)", "experiment": "Test C preemergence", "how_it_was_run": "as §2"}, "Sunflower [20]": {"system": "Sunflower", "experiment": "Test C preemergence", "conditions": "Rate 250 g/ha, visual evaluation after 12 to 14 days"}, "[21]": {"conditions": "Rate 62 g/ha, scale 0 to 100, 0 no effect, 100 complete control"}, "[22]": {"conditions": "Preemergence, Rate 500 g/ha, scale 0 to 100"}, "[23]": {"conditions": "preemergence, Rate 250 g/ha, visual evaluation after 12 to 14 days"}, "[24]": {"conditions": "preemergence, Rate 125 g/ha, scale 0 to 100, 0 no effect, 100 complete control"}}, "data": [{"smiles": "O=C1C(n2ccc(C3CC3)n2)CCN1c1cccc(C(F)(F)F)c1", "note": "(stereo not drawn) [Compound 8]", "values": [{"measurement": "Plant response rating, Surinam grass", "setting": "[1]; Preemergence, Rate 500 g/ha", "value": 70}, {"measurement": "Plant response rating, Surinam grass", "setting": "[1]; preemergence, Rate 125 g/ha", "value": 20}, {"measurement": "Plant response rating, Barnyardgrass", "setting": "[2]; Preemergence, Rate 500 g/ha", "value": 70}, {"measurement": "Plant response rating, Barnyardgrass", "setting": "[2]; preemergence, Rate 125 g/ha", "value": 0}, {"measurement": "Plant response rating, Cocklebur", "setting": "[3]; Preemergence, Rate 500 g/ha", "value": 0}, {"measurement": "Plant response rating, Cocklebur", "setting": "[3]; preemergence, Rate 125 g/ha", "value": 0}, {"measurement": "Plant response rating, Corn", "setting": "corn (Zea mays); Preemergence, Rate 500 g/ha", "value": 0}, {"measurement": "Plant response rating, Corn", "setting": "corn (Zea mays); preemergence, Rate 125 g/ha", "value": 0}, {"measurement": "Plant response rating, Crabgrass", "setting": "[4]; Preemergence, Rate 500 g/ha", "value": 100}, {"measurement": "Plant response rating, Crabgrass", "setting": "[4]; preemergence, Rate 125 g/ha", "value": 30}, {"measurement": "Plant response rating, Foxtail, Giant", "setting": "[5]; Preemergence, Rate 500 g/ha", "value": 90}, {"measurement": "Plant response rating, Foxtail, Giant", "setting": "[5]; preemergence, Rate 125 g/ha", "value": 40}, {"measurement": "Plant response rating, Lambsquarters", "setting": "[6]; Preemergence, Rate 500 g/ha", "value": 100}, {"measurement": "Plant response rating, Lambsquarters", "setting": "[6]; preemergence, Rate 125 g/ha", "value": 0}, {"measurement": "Plant response rating, Morningglory", "setting": "[7]; Preemergence, Rate 500 g/ha", "value": 0}, {"measurement": "Plant response rating, Morningglory", "setting": "[7]; preemergence, Rate 125 g/ha", "value": 0}, {"measurement": "Plant response rating, Pigweed", "setting": "[8]; Preemergence, Rate 500 g/ha", "value": 100}, {"measurement": "Plant response rating, Pigweed", "setting": "[8]; preemergence, Rate 125 g/ha", "value": 20}, {"measurement": "Plant response rating, Rice", "setting": "rice (Oryza saliva); Preemergence, Rate 500 g/ha", "value": 0}, {"measurement": "Plant response rating, Rice", "setting": "rice (Oryza saliva); preemergence, Rate 125 g/ha", "value": 0}, {"measurement": "Plant response rating, Velvetleaf", "setting": "[9]; Preemergence, Rate 500 g/ha", "value": 0}, {"measurement": "Plant response rating, Velvetleaf", "setting": "[9]; preemergence, Rate 125 g/ha", "value": 0}, {"measurement": "Plant response rating, Sunflower", "setting": "Sunflower [10]; [21]", "value": 0}, {"measurement": "Plant response rating, Sunflower", "setting": "Sunflower [10]; Rate 500 g/ha, scale 0 to 100", "value": 30}, {"measurement": "Plant response rating, Surinam grass", "setting": "[11]; [22]", "value": 60}, {"measurement": "Plant response rating, Surinam grass", "setting": "[11]; [21]", "value": 0}, {"measurement": "Plant response rating (0 to 100), Surinam grass", "setting": "[11]; [23]", "value": 50}, {"measurement": "Plant response rating, Surinam grass", "setting": "[11]; [24]", "value": 0}, {"measurement": "Plant response rating, Bermudagrass", "setting": "[12]; [22]", "value": 100}, {"measurement": "Plant response rating, Bermudagrass", "setting": "[12]; [21]", "value": 0}, {"measurement": "Plant response rating (0 to 100 where 0 is no effect and 100 is complete control), Bermudagrass", "setting": "[12]; [23]", "value": 70}, {"measurement": "Plant response rating, Bermudagrass", "setting": "[12]; [24]", "value": 70}, {"measurement": "Plant response rating, Cocklebur", "setting": "[13]; [22]", "value": 0}, {"measurement": "Plant response rating, Cocklebur", "setting": "[13]; [21]", "value": 0}, {"measurement": "Plant response rating (0 to 100), Cocklebur", "setting": "[13]; [23]", "value": 0}, {"measurement": "Plant response rating, Cocklebur", "setting": "[13]; [24]", "value": 0}, {"measurement": "Plant response rating, Ragweed, Common", "setting": "[14]; [22]", "value": 80}, {"measurement": "Plant response rating, Ragweed, Common", "setting": "[14]; [21]", "value": 0}, {"measurement": "Plant response rating, Ragweed, Common", "setting": "[14]; [24]", "value": 0}, {"measurement": "Plant response rating, Crabgrass", "setting": "[15]; [22]", "value": 100}, {"measurement": "Plant response rating, Crabgrass", "setting": "[15]; [21]", "value": 70}, {"measurement": "Plant response rating (0 to 100), Crabgrass", "setting": "[15]; [23]", "value": 90}, {"measurement": "Plant response rating, Crabgrass", "setting": "[15]; [24]", "value": 70}, {"measurement": "Plant response rating, Foxtail, Giant", "setting": "[16]; [22]", "value": 100}, {"measurement": "Plant response rating, Foxtail, Giant", "setting": "[16]; [21]", "value": 0}, {"measurement": "Plant response rating (0 to 100), Foxtail, Giant", "setting": "[16]; [23]", "value": 90}, {"measurement": "Plant response rating, Foxtail, Giant", "setting": "[16]; [24]", "value": 20}, {"measurement": "Plant response rating, Goosegrass", "setting": "[17]; [22]", "value": 100}, {"measurement": "Plant response rating, Goosegrass", "setting": "[17]; [21]", "value": 0}, {"measurement": "Plant response rating (0 to 100), Goosegrass", "setting": "[17]; [23]", "value": 90}, {"measurement": "Plant response rating, Goosegrass", "setting": "[17]; [24]", "value": 20}, {"measurement": "Plant response rating, Morningglory", "setting": "[18]; [22]", "value": 30}, {"measurement": "Plant response rating, Morningglory", "setting": "[18]; [21]", "value": 20}, {"measurement": "Plant response rating (0 to 100), Morningglory", "setting": "[18]; [23]", "value": 30}, {"measurement": "Plant response rating, Morningglory", "setting": "[18]; [24]", "value": 30}, {"measurement": "Plant response rating, Velvetleaf", "setting": "[19]; [22]", "value": 20}, {"measurement": "Plant response rating, Velvetleaf", "setting": "[19]; [21]", "value": 0}, {"measurement": "Plant response rating (0 to 100), Velvetleaf", "setting": "[19]; [23]", "value": 20}, {"measurement": "Plant response rating, Velvetleaf", "setting": "[19]; [24]", "value": 0}, {"measurement": "Plant response rating (0 to 100), Sunflower", "setting": "Sunflower [20]", "value": 0}]}]}
